Read-outs that look alike come from different tables or passages of the source. Where no end group is shown, it is not given here.
Key:
[1] = system: BT-549 breast cancer cells; details: for effect on viability of BT-549 breast cancer cells: two doubling times, CCK-8; for IC50: 96 h
Protocol: The effect of Peptides 7M and 7MM on BT-549 breast cancer cells (ATCC #HTB-122) was studied. Pierce Protein Transfection reagent (Thermo Scientific, 89850) was used to deliver peptide to the cultured cells. BT-549 breast cancer cells were transfected with 0.625-20 μM Peptide 7M or 1.25-10 μM Peptide 7MM for 3.5 hrs, incubated in a complete media for a duration of two doubling times (96 hours), and assessed for viability by using a CCK-8 colorimetric assay.
(§1) IC50 values were calculated from obtained equations that describe cell viability as a function of peptide concentration.

CMG helicase [2] = biological target: T1, CMG helicase (Xenopus laevis, UniProt Q91876); test: S phase arrested Xenopus egg extracts, chromatin RPA Western blot as readout for DNA helicase activity; assay type: biochemical; details: 250 μM peptide, 90 min incubation
T1 construct: from tissue; host or cells: S phase arrested Xenopus egg extracts (endogenous proteins on chromatin)
Protocol: The peptide of SEQ ID NO: 1 was synthesized using solid-phase synthesis. The product was purified using HPLC to a purity of about 99%. 250 μM of peptide Ex7 ([…]) (SEQ ID NO: 8), peptide 7N (circularized—KGEVLQMEDDLV) (SEQ ID NO: 9), peptide 7M (ISFQLMLCVLDYF) (SEQ ID NO: 1), or peptide 7C (IKLSPPMLLKEPYK) (SEQ ID NO: 10) were incubated in S phase arrested Xenopus egg extracts. Following a 90 min incubation, chromatin was isolated and probed by Western blotting for RPA protein as a readout for DNA helicase activity. Additionally, peptide 7MN (ISFQLML) (SEQ ID NO: 5), peptide 7MM (QLMLCVL) (SEQ ID NO: 2), and peptide 7MC (LCVLDYF) (SEQ ID NO: 6) were tested.
250 μM of each of peptides 7α (DLVISFQLMLCVLDYFIK) (SEQ ID NO: 14), 7α-ln (LVISFQLMLCVLDYFIK) (SEQ ID NO: 22), 7α-2n (VISFQLMLCVLDYFIK) (SEQ ID NO: 23), 7α-3n (ISFQLMLCVLDYFIK) (SEQ ID NO: 24), 7α-4n (SFQLMLCVLDYFIK) (SEQ ID NO: 25), 7α-5n (FQLMLCVLDYFIK) (SEQ ID NO: 26), 7α-6n (QLMLCVLDYFIK) (SEQ ID NO: 27), 7α-7n (LMLCVLDYFIK) (SEQ ID NO: 28), 7α-17c (DLVISFQLMLCVLDYF) (SEQ ID NO: 29), 7α-16c (DLVISFQLMLCVLDY) (SEQ ID NO: 30), 7α-15c (DVISFQLMLCVLD) (SEQ ID NO: 31), 7α-14c (DVISFQLMLCVL) (SEQ ID NO: 32), 7α-11c (DVISFQLML) (SEQ ID NO: 33) was incubated in S phase arrested Xenopus egg extracts. Following a 90 min incubation, chromatin was isolated and probed by Western blotting for RPA protein as a readout for DNA helicase activity.

cancer cells = test: Viability of cancer cells, summary statement; assay type: cell-based
CMG helicase [3] = biological target: T1, CMG helicase; test: S phase arrested Xenopus egg extracts, chromatin RPA Western blot as readout for DNA helicase activity; assay type: biochemical; details: extended from the above and other findings; no test described
HepG2 liver cancer cells = details: 96 h
Protocol: (§2) Pierce Protein Transfection reagent (Thermo Scientific, 89850) was used to deliver peptide to the cultured cells.
as §1

[4] = system: PANC-1 pancreatic cancer cells; details: 48 h
Protocol: The effect of Peptides 7M and 7MM on PANC-1 pancreatic cancer cells (ATCC #CRL-1469) was studied. Pierce Protein Transfection reagent (Thermo Scientific, 89850) was used to deliver peptide to the cultured cells. PANC-1 pancreatic cancer cells were transfected with 0.625-10 μM Peptide 7M or Peptide 7MM for 3.5 hrs, incubated in a complete media for a duration of two doubling times (48 hours), and assessed for viability by using a CCK-8 colorimetric assay.
The effect of peptide 7α of viability of pancreatic cancer cells was studied. PANC-1 pancreatic cancer cells (ATCC #CRL-1469) were transfected with 1.25-10 μM peptide 7α for 3.5 hrs, incubated in a complete media for a duration of two doubling times, and assessed for viability by using a CCK-8 colorimetric assay (Dojindo Molecular Technologies, Inc.).
as §1

[5] = system: SVG p12 immortalized astroglia cells
Protocol: as §1

[6] = system: M059J glioma cancer cells; details: for IC50: 48 h
Protocol: as §2
M059J glioma cancer cells (ATCC #CRL-2366) were transfected with 1.25-10 μM peptide 7α for 3.5 hrs, incubated in a complete media for a duration of two doubling times, and assessed for viability by using a CCK-8 colorimetric assay (Dojindo Molecular Technologies, Inc.).
M059J glioma cancer cells (ATCC #CRL-2366) were transfected with 1.25-10 μM peptide 7MM for 3.5 hrs, incubated in a complete media for a duration of two doubling times, and assessed for viability by using a CCK-8 colorimetric assay (Dojindo Molecular Technologies, Inc.).
as §1

[7] = system: U-2 OS osteosarcoma cancer cells
Protocol: as §1

[8] = system: DU145 prostate cancer cells
Protocol: DU145 prostate cancer cells (ATCC #HTB-81) were transfected with 1.25-10 μM peptide 7α for 3.5 hrs, incubated in a complete media for a duration of two doubling times, and assessed for viability by using a CCK-8 colorimetric assay (Dojindo Molecular Technologies, Inc.).
DU145 prostate cancer cells (ATCC #HTB-81) were transfected with 1.25-10 μM peptide 7MM for 3.5 hrs, incubated in a complete media for a duration of two doubling times, and assessed for viability by using a CCK-8 colorimetric assay (Dojindo Molecular Technologies, Inc.).
as §1

[9] = system: Hs 766T pancreatic cancer cells
Protocol: as §1

[10] = system: hTERT-HPNE immortalized normal pancreatic cells
Protocol: as §1

[11] = system: HLF normal primary lung fibroblasts
Protocol: The effect of peptide 7α of viability of HLF normal primary lung fibroblasts was studied. HLF normal primary lung fibroblasts (ATCC #PCS-201-013) were transfected with 1.25-10 μM peptide 7α for 3.5 hrs, incubated in a complete media for a duration of two doubling times, and assessed for viability by using a CCK-8 colorimetric assay (Dojindo Molecular Technologies, Inc.).
The effect of peptide 7MM of viability of normal lung cells was studied. HLF normal primary lung fibroblasts (ATCC #PC S-201-013) were transfected with 1.25-10 μM peptide 7MM for 3.5 hrs, incubated in a complete media for a duration of two doubling times, and assessed for viability by using a CCK-8 colorimetric assay (Dojindo Molecular Technologies, Inc.).
as §1

[12] = system: HMEC primary mammary epithelial normal cells
Protocol: HMEC mammary epithelial cells (ATCC #PCS-600-010) were transfected with 1.25-20 μM peptide 7α for 3.5 hrs, incubated in a complete media for a duration of two doubling times, and assessed for viability by using a CCK-8 colorimetric assay (Dojindo Molecular Technologies, Inc.).
HMEC primary normal epithelial breast cells (ATCC #PCS-600-010) were transfected with 1.25-10 μM peptide 7MM for 3.5 hrs, incubated in a complete media for a duration of two doubling times, and assessed for viability by using a CCK-8 colorimetric assay (Dojindo Molecular Technologies, Inc.).
as §1

[13] = system: HCT-116 colorectal cancer cells
Protocol: The effect of peptide 7MM of viability of colorectal cancer cells was studied. HCT-116 colorectal cancer cells (ATCC #CCL-247) were transfected with 1.25-10 μM peptide 7MM for 3.5 hrs, incubated in a complete media for a duration of two doubling times, and assessed for viability by using a CCK-8 colorimetric assay (Dojindo Molecular Technologies, Inc.).
as §1

[14] = system: HT1080 fibrosarcoma cancer cells
Protocol: as §1

[15] = system: PC3 prostate cancer cells
Protocol: The effect of peptide 7α of viability of prostate cancer cells was studied. PC3 prostate cancer cells (ATCC #CRL-1435) were transfected with 1.25-10 μM peptide 7α for 3.5 hrs, incubated in a complete media for a duration of two doubling times, and assessed for viability by using a CCK-8 colorimetric assay (Dojindo Molecular Technologies, Inc.).
The effect of peptide 7MM of viability of prostate cancer cells was studied. PC3 prostate cancer cells (ATCC #CRL-1435) were transfected with 1.25-10 μM peptide 7MM for 3.5 hrs, incubated in a complete media for a duration of two doubling times, and assessed for viability by using a CCK-8 colorimetric assay (Dojindo Molecular Technologies, Inc.).
as §1

[16] = system: THLE-3 immortalized normal liver cells
Protocol: as §1

[17] = transfected 1.25-10 μM for 3.5 hrs
[18] = conclusion drawn from Examples 39, 41, 42 and FIGS. 42, 44, 45
[19] = transfected 2.5 and 5.0 μM for 3.5 hrs
[20] = extended from the above and other findings, no test described
[21] = transfected 1.25-10 μM for 3.5 hrs, two doubling times, CCK-8

Protocol for A549 lung cancer cells: as §1
Protocol for H596 lung cancer cells: as §1

In the case of DLVISFALMLCVLDYFIK [7α-Q7A], the “effect on viability of BT-549 breast cancer cells” value [1, 17] is reported as “inhibit viability of breast cancer cells”.
DLVISFQGMLCVLDYFIK [7α-L8G] was tested, and the “effect on viability of BT-549 breast cancer cells” value [1, 17] was “inhibit viability of breast cancer cells”.
“DLVISFQLMLCVLDY (listed as Homo sapiens) [7α-16c]” was tested, and the “inhibition of CMG helicase in vitro (chromatin RPA Western blot)” value (“inhibition of CMG helicase in vitro” for short) (CMG helicase [2]) was “inhibit CMG helicase in vitro” and the “effect on viability of cancer cells” value (cancer cells; [18]) was “decrease viability of cancer cells”.
With “DLVISFQLMLCVLDYF (listed as Homo sapiens) [7α-17c]” the “inhibition of CMG helicase in vitro” value (CMG helicase [2]) was “inhibit CMG helicase in vitro” and the “effect on viability of cancer cells” value (cancer cells; [18]) was “decrease viability of cancer cells”.
In the case of “DVISFQLML (DLVISFQLML; listed as Homo sapiens) [7α-11c]”, the “effect on viability of BT-549 breast cancer cells” value [1, 19] is reported as “decrease viability”, the “inhibition of CMG helicase in vitro” value (CMG helicase [2]) is reported as “inhibit CMG helicase in vitro” and the “effect on viability of cancer cells” value (cancer cells; [18]) is reported as “decrease viability of cancer cells”.
With “DVISFQLMLCVL (DLVISFQLMLCVL; listed as Homo sapiens) [7α-14c]” the “effect on viability of BT-549 breast cancer cells” value [1, 19] was “decrease viability”, the “inhibition of CMG helicase in vitro” value (CMG helicase [2]) was “inhibit CMG helicase in vitro” and the “effect on viability of cancer cells” value (cancer cells; [18]) was “decrease viability of cancer cells”.
“DVISFQLMLCVLD (DLVISFQLMLCVLD; listed as Homo sapiens) [7α-15c]” was tested, and the “effect on viability of BT-549 breast cancer cells” value [1, 19] was “decrease viability”, the “inhibition of CMG helicase in vitro” value (CMG helicase [2]) was “inhibit CMG helicase in vitro” and the “effect on viability of cancer cells” value (cancer cells; [18]) was “decrease viability of cancer cells”.
With “FQLMLCVLDYFIK (listed as Homo sapiens) [7α-5n]” the “inhibition of CMG helicase in vitro” value (CMG helicase [2]) was “inhibit CMG helicase in vitro” and the “effect on viability of cancer cells” value (cancer cells; [18]) was “decrease viability of cancer cells”.
For GMLCVL [7MM6-G2], the “inhibition of CMG helicase” value (CMG helicase [3]) was “inhibit CMG helicase” and the “effect on viability of cancer cells” value (cancer cells; [20]) was “decrease viability of cancer cells”.
For GMLCVLD [7MM6-G2-D], the “inhibition of CMG helicase” value (CMG helicase [3]) was “inhibit CMG helicase” and the “effect on viability of cancer cells” value (cancer cells; [20]) was “decrease viability of cancer cells”.
For ISFQLMLCVLDYF [7M, ISFQLMLCVLDYF], the IC50 (HepG2 liver cancer cells) was 10 µM, the IC50 [4] was 7.4 µM and the IC50 [5] was 109 µM. For the same substance, the IC50 [1] was 6.6 µM and the IC50 [6] was 6.8 µM.
“ISFQLMLCVLDYFIK (listed as Homo sapiens) [7α-3n]” was tested, and the “inhibition of CMG helicase in vitro” value (CMG helicase [2]) was “inhibit CMG helicase in vitro” and the “effect on viability of cancer cells” value (cancer cells; [18]) was “decrease viability of cancer cells”.
In the case of LMGCVL [7MM6-G4], the “inhibition of CMG helicase” value (CMG helicase [3]) is reported as “inhibit CMG helicase” and the “effect on viability of cancer cells” value (cancer cells; [20]) is reported as “decrease viability of cancer cells”.
In the case of LMGCVLD [7MM6-G4-D], the “inhibition of CMG helicase” value (CMG helicase [3]) is reported as “inhibit CMG helicase” and the “effect on viability of cancer cells” value (cancer cells; [20]) is reported as “decrease viability of cancer cells”.
LMLCVL [7MM6] was tested, and the “inhibition of CMG helicase” value (CMG helicase [3]) was “inhibit CMG helicase” and the “effect on viability of cancer cells” value (cancer cells; [20]) was “decrease viability of cancer cells”.
With LMLCVLD [7MM6-D] the “inhibition of CMG helicase” value (CMG helicase [3]) was “inhibit CMG helicase” and the “effect on viability of cancer cells” value (cancer cells; [20]) was “decrease viability of cancer cells”.
For “LMLCVLDYFIK (listed as Homo sapiens) [7α-7n]”, the “effect on viability of BT-549 breast cancer cells” value [1, 19] was “decrease viability”, the “inhibition of CMG helicase in vitro” value (CMG helicase [2]) was “inhibit CMG helicase in vitro” and the “effect on viability of cancer cells” value (cancer cells; [18]) was “decrease viability of cancer cells”.
In the case of “LVISFQLMLCVLDYFIK (listed as Homo sapiens) [7α-1n]”, the “inhibition of CMG helicase in vitro” value (CMG helicase [2]) is reported as “inhibit CMG helicase in vitro” and the “effect on viability of cancer cells” value (cancer cells; [18]) is reported as “decrease viability of cancer cells”.
QGMLCVL [7MM-G2] was tested, and the “inhibition of CMG helicase” value (CMG helicase [3]) was “inhibit CMG helicase” and the “effect on viability of cancer cells” value (cancer cells; [20]) was “decrease viability of cancer cells”.
For QLMGCVL [7MM-G4], the “inhibition of CMG helicase” value (CMG helicase [3]) was “inhibit CMG helicase” and the “effect on viability of cancer cells” value (cancer cells; [20]) was “decrease viability of cancer cells”.
QLMLCVL [7MM, QLMLCVL] showed an IC50 (HepG2 liver cancer cells) of 14.2 µM, an IC50 [4] of 10.1 µM and an IC50 (H596 lung cancer cells) of 7.6 µM. For the same substance, the “effect on viability of H596 lung cancer cells” value (H596 lung cancer cells; [21]) was “decreases viability”, the IC50 [7] was 9.6 µM and the “effect on viability of U-2 OS osteosarcoma cancer cells” value [7, 21] was “decreases viability”. For the same substance, the IC50 [5] was 60.4 µM, the “effect on viability of SVG p12 normal glial cells” value [5, 21] was “does not affect viability” and the IC50 (A549 lung cancer cells) was 15.6 µM. For the same substance, the “effect on viability of A549 lung cancer cells” value (A549 lung cancer cells; [21]) was “decreases viability”, the IC50 [8] was 10.6 µM and the “effect on viability of DU145 prostate cancer cells” value [8, 21] was “decreases viability”. For the same substance, the IC50 [1] was 6.8 µM, the IC50 [6] was 7.7 µM and the “effect on viability of M059J glioma cells” value [6, 21] was “decreases viability”. The IC50 [9] was 5.7 µM, the “effect on viability of Hs 766T pancreatic cancer cells” value [9, 21] was “decreases viability” and the IC50 [10] was 79.9 µM. For the same substance, the “effect on viability of hTERT-HPNE normal pancreatic cells” value [10, 21] was “does not affect viability”, the IC50 [11] was 110 µM and the “effect on viability of HLF normal primary lung fibroblasts” value [11, 21] was “does not affect viability”. For the same substance, the IC50 [12] was 77.5 µM, the “effect on viability of HMEC normal breast cells” value [12, 21] was “does not affect viability” and the IC50 [13] was 4.9 µM. The “effect on viability of HCT-116 colorectal cancer cells” value [13, 21] was “decreases viability”, the IC50 [14] was 9.7 µM and the “effect on viability of HT1080 fibrosarcoma cancer cells” value [14, 21] was “decreases viability”. The IC50 [15] was 13 µM, the “effect on viability of PC3 prostate cancer cells” value [15, 21] was “decreases viability” and the IC50 [16] was 100 µM. The “effect on viability of THLE-3 normal liver cells” value [16, 21] was “does not affect viability”.
For QLMLCVLD [7MM-D], the “inhibition of CMG helicase” value (CMG helicase [3]) was “inhibit CMG helicase” and the “effect on viability of cancer cells” value (cancer cells; [20]) was “decrease viability of cancer cells”.
“QLMLCVLDYFIK (listed as Homo sapiens) [7α-6n]” was tested, and the “effect on viability of BT-549 breast cancer cells” value [1, 19] was “decrease viability”, the “inhibition of CMG helicase in vitro” value (CMG helicase [2]) was “inhibit CMG helicase in vitro” and the “effect on viability of cancer cells” value (cancer cells; [18]) was “decrease viability of cancer cells”.
In the case of “SFQLMLCVLDYFIK (listed as Homo sapiens) [7α-4n]”, the “inhibition of CMG helicase in vitro” value (CMG helicase [2]) is reported as “inhibit CMG helicase in vitro” and the “effect on viability of cancer cells” value (cancer cells; [18]) is reported as “decrease viability of cancer cells”.
“VISFQLMLCVLDYFIK (listed as Homo sapiens) [7α-2n]” was tested, and the “inhibition of CMG helicase in vitro” value (CMG helicase [2]) was “inhibit CMG helicase in vitro” and the “effect on viability of cancer cells” value (cancer cells; [18]) was “decrease viability of cancer cells”.

Source: patent publication US12297295B2, “Peptide for treating cancer” (Saint Leo University, priority 2019, dated 2025)
